Test results taken from patent US8912216B2, “Hetaryl-[1,8]naphthyridine derivatives” (Merck Patent GmbH, priority 2010, dated 2014).

Columns and labels:
GST-ALK5 = molecular target: T1, GST-ALK5 (Homo sapiens, UniProt P36897); assay: In-vitro (enzyme) kinase assay, 384-well flashplate (Example 36); format: biochemical; details: GST-ALK5, GST-SMAD2 substrate, 3 mM ATP, 30° C., 45 min; read-out: TβR activity (Example 36)
T1 sequence (P36897 34-503): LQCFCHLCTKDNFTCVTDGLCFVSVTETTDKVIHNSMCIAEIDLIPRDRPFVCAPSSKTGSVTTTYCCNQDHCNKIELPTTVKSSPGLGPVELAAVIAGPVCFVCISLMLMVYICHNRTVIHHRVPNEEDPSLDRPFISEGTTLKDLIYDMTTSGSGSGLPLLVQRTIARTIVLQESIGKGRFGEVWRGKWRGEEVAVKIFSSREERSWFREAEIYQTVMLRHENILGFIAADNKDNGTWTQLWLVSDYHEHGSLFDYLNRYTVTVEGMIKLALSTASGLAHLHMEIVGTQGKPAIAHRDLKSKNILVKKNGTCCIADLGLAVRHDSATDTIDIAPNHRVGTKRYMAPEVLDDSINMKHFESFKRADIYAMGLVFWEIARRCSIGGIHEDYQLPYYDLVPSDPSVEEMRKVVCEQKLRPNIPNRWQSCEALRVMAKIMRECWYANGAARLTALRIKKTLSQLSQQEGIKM
Procedure, shortened: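 Radiometric flashplate assay: 31.2 nM GST-ALK5 phosphorylating 439 nM GST-SMAD2 with 3 mM ATP plus ³³P-ATP, in HEPES/MgCl2/MnCl2/DTT/BSA buffer pH 7.4, 45 min at 30 °C, 5-10 compound concentrations. EDTA stop, filtration and washing, then radioactivity counted; IC50 derived from the curve.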

[1] = test system: TGF-beta-induced phosphorylation of Smad2 and Smad3 in Mv1-Lu cells; assay: Inhibition of Smad2/3 phosphorylation in Mv1Lu cells (Example 35A); format: cell-based, mink Mustela vison; details: Neogale vison, Mv1-Lu cells, TGF-beta 1 5 ng/ml, phospho-Smad2/3 ELISA, read-out: TβR activity (Example 35A)
Procedure, shortened: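 Serum-starved (16-20 h) Mv1-Lu mink lung epithelial cells were pre-incubated 1.5 h with compound dilutions (0.2% DMSO), then stimulated 1 h with 5 ng/ml TGF-beta 1. Phospho-Smad2 (Ser465/467)/Smad3 (Ser423/425) in lysates was measured by ELISA. IC50 came from dose-response fits between stimulated and unstimulated controls.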

Row | SMILES | IC50 (GST-ALK5) | IC50 [1]
1 | CN1CCN(c2ccc(-c3cncc(-c4cc(-c5ccccc5F)nc5ncccc45)n3)cn2)CC1 [compound 82, 2-(2-Fluoro-phenyl)-4-{6-[6-(4-methyl-piperazin-1-yl)-pyridin-3-yl]-pyrazin-2-yl}-[1,8]naphthyridine] | < 100 nM | 100 to 1000 nM
2 | OCCn1cc(-c2cncc(-c3cc(-c4ccccc4F)nc4ncccc34)n2)cn1 [compound 83, 2-(4-{6-[2-(2-Fluoro-phenyl)-[1,8]naphthyridin-4-yl]-pyrazin-2-yl}-pyrazol-1-yl)-ethanol] | < 100 nM | 1000 to 10000 nM
3 | OC/C=C/Cn1cc(-c2cncc(-c3cc(-c4ccccc4F)nc4ncccc34)c2)cn1 [compound 84] | < 100 nM | 100 to 1000 nM
4 | CN1CCC(n2cc(-c3cncc(-c4cc(-c5ccccc5F)nc5ncccc45)n3)cn2)CC1 [compound 85, 2-(2-Fluoro-phenyl)-4-{6-[1-(1-methyl-piperidin-4-yl)-1H-pyrazol-4-yl]-pyrazin-2-yl}-[1,8]naphthyridine] | < 100 nM | 100 to 1000 nM
5 | CN1CCN(CCCn2cc(-c3cncc(-c4cc(-c5ccccc5F)nc5ncccc45)c3)cn2)CC1 [compound 86, 2-(2-Fluoro-phenyl)-4-(5-{1-[3-(4-methyl-piperazin-1-yl)-propyl]-1H-pyrazol-4-yl}-pyridin-3-yl)-[1,8]naphthyridine] | < 100 nM | 100 to 1000 nM
6 | Fc1ccccc1-c1cc(-c2cncc(-c3cnn(CCCN4CCOCC4)c3)c2)c2cccnc2n1 [compound 87, 2-(2-Fluoro-phenyl)-4-{5-[1-(3-morpholin-4-yl-propyl)-1H-pyrazol-4-yl]-pyridin-3-yl}-[1,8]naphthyridine] | < 100 nM | 100 to 1000 nM
7 | OCC(O)Cn1cc(-c2cncc(-c3cc(-c4cc(F)ccc4F)nc4ncccc34)c2)cn1 (stereo not shown) [compound 88, 3-(4-{5-[2-(2,5-Difluoro-phenyl)-[1,8]naphthyridin-4-yl]-pyridin-3-yl}-pyrazol-1-yl)-propane-1,2-diol] | < 100 nM | 1000 to 10000 nM
8 | OCCCn1cc(-c2cncc(-c3cc(-c4cc(F)ccc4F)nc4ncccc34)c2)cn1 [compound 89, 3-(4-{5-[2-(2,5-Difluoro-phenyl)-[1,8]naphthyridin-4-yl]-pyridin-3-yl}-pyrazol-1-yl)-propan-1-ol] | < 100 nM | 100 to 1000 nM
9 | CN1CCN(c2ccc(-c3cncc(-c4cc(-c5cc(Cl)ccc5F)nc5ncccc45)c3)cc2)CC1 [compound 92, 2-(5-Chloro-2-fluoro-phenyl)-4-{5-[4-(4-methyl-piperazin-1-yl)-phenyl]-pyridin-3-yl}-[1,8]naphthyridine] | < 100 nM | < 100 nM
10 | CN1CCN(c2ccc(-c3cncc(-c4cc(-c5cc(Cl)ccc5F)nc5ncccc45)c3)cn2)CC1 [compound 93, 2-(5-Chloro-2-fluoro-phenyl)-4-[6′-(4-methyl-piperazin-1-yl)-[3,3′]bipyridinyl-5-yl]-[1,8]naphthyridine] | < 100 nM | < 100 nM
11 | Fc1ccc(Cl)cc1-c1cc(-c2cncc(-c3ccc(N4CCNCC4)nc3)c2)c2cccnc2n1 [compound 95, 2-(5-Chloro-2-fluoro-phenyl)-4-(6′-piperazin-1-yl-[3,3′]bipyridinyl-5-yl)-[1,8]naphthyridine] | < 100 nM | 100 to 1000 nM
12 | Fc1ccc(Cl)cc1-c1cc(-c2cncc(-c3cnn(CCN4CCOCC4)c3)c2)c2cccnc2n1 [compound 96, 2-(5-Chloro-2-fluoro-phenyl)-4-{5-[1-(2-morpholin-4-yl-ethyl)-1H-pyrazol-4-yl]-pyridin-3-yl}-[1,8]naphthyridine] | < 100 nM | < 100 nM
13 | CN(C)CCCn1cc(-c2cncc(-c3cc(-c4cc(Cl)ccc4F)nc4ncccc34)c2)cn1 [compound 97, [3-(4-{5-[2-(5-Chloro-2-fluoro-phenyl)-[1,8]naphthyridin-4-yl]-pyridin-3-yl}-pyrazol-1-yl)-propyl]-dimethyl-amine] | < 100 nM | < 100 nM
14 | Fc1ccc(Cl)cc1-c1cc(-c2cnccc2-c2ccccc2)c2cccnc2n1 [compound 98, 2-(5-Chloro-2-fluoro-phenyl)-4-(4-phenyl-pyridin-3-yl)-[1,8]naphthyridine] | 1000 to 10000 nM | 1000 to 10000 nM
15 | Fc1ccc(Cl)cc1-c1cc(-c2cnc3ccccc3c2)c2cccnc2n1 [compound 100, 2-(5-Chloro-2-fluoro-phenyl)-4-quinolin-3-yl-[1,8]naphthyridine] | 1000 to 10000 nM | > 10000 nM
16 | Fc1ccc(Cl)cc1-c1cc(-c2cccnc2-c2ccccc2)c2cccnc2n1 [compound 101, 2-(5-Chloro-2-fluoro-phenyl)-4-(2-phenyl-pyridin-3-yl)-[1,8]naphthyridine] | > 10000 nM | > 10000 nM
17 | Fc1ccc(Cl)cc1-c1cc(-c2cncc(-c3ccnc(N4CCOCC4)c3F)c2)c2cccnc2n1 [compound 108, 2-(5-Chloro-2-fluoro-phenyl)-4-(3′-fluoro-2′-morpholin-4-yl-[3,4′]bipyridinyl-5-yl)-[1,8]naphthyridine] | 100 to 1000 nM | 100 to 1000 nM
18 | CC(C)(C)OC(=O)Nc1cc(-c2cncc(-c3cc(-c4cc(Cl)ccc4F)nc4ncccc34)c2)ccn1 [compound 112, {5-[2-(5-Chloro-2-fluoro-phenyl) [1,8]naphthyridin-4-yl]-[3,4′]bipyridinyl-2′-yl}-carbamic acid tert-butyl ester] | 100 to 1000 nM | 100 to 1000 nM

Second part, the molecule after the results:

Row | IC50 (GST-ALK5) | IC50 [1] | SMILES
19 | < 100 nM | < 100 nM | OCCn1cc(-c2cncc(-c3cc(-c4cc(Cl)ccc4F)nc4ncccc34)c2)cn1 [compound 91, 2-(4-{5-[2-(5-Chloro-2-fluoro-phenyl)-[1,8]naphthyridin-4-yl]-pyridin-3-yl}-pyrazol-1-yl)-ethanol]
20 | < 100 nM | < 100 nM | Fc1ccc(Cl)cc1-c1cc(-c2cncc(-c3ccc(N4CCNCC4)cc3)c2)c2cccnc2n1 [compound 94, 2-(5-Chloro-2-fluoro-phenyl)-4-[5-(4-piperazin-1-yl-phenyl)-pyridin-3-yl]-[1,8]naphthyridine]
21 | < 100 nM | 100 to 1000 nM | Fc1ccc(Cl)cc1-c1cc(-c2cncc(-c3ccncc3)c2)c2cccnc2n1 [compound 102, 4-[3,4′]Bipyridinyl-5-yl-2-(5-chloro-2-fluoro-phenyl)-[1,8]naphthyridine]
22 | < 100 nM | 100 to 1000 nM | Fc1ccc(Cl)cc1-c1cc(-c2cncc(-c3ccccn3)c2)c2cccnc2n1 [compound 103, 4-[2,3′]Bipyridinyl-5′-yl-2-(5-chloro-2-fluoro-phenyl)-[1,8]naphthyridine]
23 | < 100 nM | 100 to 1000 nM | Fc1ccc(Cl)cc1-c1cc(-c2cncc(-c3cccnc3)c2)c2cccnc2n1 [compound 104, 4-[3,3′]Bipyridinyl-5-yl-2-(5-chloro-2-fluoro-phenyl)-[1,8]naphthyridine]
24 | < 100 nM | < 100 nM | Fc1ccc(Cl)cc1-c1cc(-c2cncc(-c3ccnc(N4CCNCC4)c3)c2)c2cccnc2n1 [compound 105, 2-(5-Chloro-2-fluoro-phenyl)-4-(2′-piperazin-1-yl-[3,4′]bipyridinyl-5-yl)-[1,8]naphthyridine]
25 | 100 to 1000 nM | > 10000 nM | Fc1ccc(Cl)cc1-c1cc(-c2cncc(-c3cccc(C(F)(F)F)n3)c2)c2cccnc2n1 [compound 106, 2-(5-Chloro-2-fluoro-phenyl)-4-(6-trifluoromethyl-[2,3′]bipyridinyl-5′-yl)-[1,8]naphthyridine]
26 | 100 to 1000 nM | 1000 to 10000 nM | Fc1ccc(Cl)cc1-c1cc(-c2cncc(-c3ccc(Cl)nn3)c2)c2cccnc2n1 [compound 107, 2-(5-Chloro-2-fluoro-phenyl)-4-[5-(6-chloro-pyridazin-3-yl)-pyridin-3-yl]-[1,8]naphthyridine]
27 | < 100 nM | 100 to 1000 nM | Nc1nccc(-c2cncc(-c3cc(-c4cc(Cl)ccc4F)nc4ncccc34)c2)n1 [compound 109, 4-{5-[2-(5-Chloro-2-fluoro-phenyl)-[1,8]naphthyridin-4-yl]-pyridin-3-yl}-pyrimidin-2-ylamine]
28 | > 10000 nM | > 10000 nM | Fc1ccc(Cl)cc1-c1cc(-c2cncc(-c3cccc(-n4ccnc4)n3)c2)c2cccnc2n1 [compound 110, 2-(5-Chloro-2-fluoro-phenyl)-4-(6-imidazol-1-yl-[2,3′]bipyridinyl-5′-yl)-[1,8]naphthyridine]
29 | 100 to 1000 nM | 100 to 1000 nM | COc1cccc(-c2cncc(-c3cc(-c4cc(Cl)ccc4F)nc4ncccc34)c2)n1 [compound 111, 2-(5-Chloro-2-fluoro-phenyl)-4-(6-methoxy-[2,3′]bipyridinyl-5′-yl)-[1,8]naphthyridine]
